According to US6686496B1, “Treatment of myeloma” (University of Central Florida, priority 2001, dated 2004):

Tests used:
[1] = system: human myeloma cells (ATCC CCL155); assay: Cytotoxicity assay: growth inhibition of CCL155 cells, MTS/PMS readout; type: cell-based; conditions: Table 1, approximately 48 hours with test compound, concentration not given
Protocol: The anticancer activity against human myeloma of the novel compounds (as earlier reported) was realized by the following procedure which determines the inhibitory effect of test samples on the growth of human myeloma cells.
[…]
(ATCC CCL155) The CCL155 cells are grown in RPMI 1640 media+20% Fetal bovine serum+4.5 g/L glucose+10 mM HEPES+1.0 mM sodium pyruvate+1% Antibiotic/Antimycotic for approximately 48 hours at 37° C./5% CO2 in the presence of the test compound.
Growth/Non-Growth of the cells (e.g., cell density) is determined using Promega's MTS/PMS assay system. MTS (3-(4,5-dimethylthiazol-2-yl)-5-(3-carboxymethoxyphenyl)-2-(4-sulfophenyl)-2H-tetrazolium, inner salt) is an aqueous compound that is reduced to soluble formazan by the presence of NADH formed by dehydrogenases present within the CCL155 cells. The absorbance of the formazan can be measured at 490 nm and is directly proportional to the number of living cells present in the culture. PMS (Phenazine Methosulfate) is added an electron coupling reagent and greatly increases the rate of reduction.
To facilitate a full understanding of the procedure the following definitions are offered:
Test wells—wells containing test sample and Diluted CCL155 cells
Test values—absorbance of test wells
Blank wells—wells containing test sample and CCL155 media (C155-01S); used to obtain background absorbance due to test sample
Blank values—absorbance of blank wells
Negative Control—maximal cell growth; results of test samples will be expressed as a percent of the Negative Control
Positive Control—known inhibitor of CCL155 cells; used to validate assay system
Matrix—solvent that the samples are prepared/diluted in […]
Blank values will be determined for each sample to account for any color contribution due to the sample itself. […] After completion of MTS/PMS reaction blank values will be subtracted from the test value to obtain a net absorbance that will be used to calculate cell density. […]
In order to establish the accuracy of this assay a Positive Control consisting of 50 μM Methotrexate […] of the Negative Control (CCL155 cells are somewhat resistant to methotrexate) is utilized.
In order to establish the accuracy of this assay a Positive Control consisting of 50 μM Methotrexate should show less than 75% of the net absorbance of the Negative Control is utilized.

[2] = Animal toxicity bioassay: acute toxicity, intraperitoneal injection, LD50 by Litchfield and Wilkinson; type: in vivo; conditions: both sexes, mouse, in vivo, ip, white mice, observed 14 days
Protocol: (§1) Acute toxicity was studied on white mice of both sexes with weight ranging between 18-26 grams under intraperitoneal injection of 2% solution of tested compound in starch (the compound was dissolved in starch slime and injected) on the basis of 0.1 ml of solution per 10 g of the animal weight. Each dose was tested on the group of 6 animals that were observed during 14 days period.

[3] = Solubility in solvents and water
white mice = assay: Animal toxicity bioassay: acute toxicity, intraperitoneal injection, LD50 by Litchfield and Wilkinson; type: in vivo; conditions: Table 1, observed 14 days
Protocol: as §1

mice = conditions: cited from earlier work
Stability in solutions = type: physicochemical; conditions: solution heated or stored for a long time; forms OF-12

| SMILES | Activity (ATCC CCL155) [1] [%] | LD50 at 14 days [2] [mg/kg] | Solubility in DMSO, DMFA, dichloroethane, acetonitrile [3] | Solubility in water [3] | other results |
| --- | --- | --- | --- | --- | --- |
| COC(=O)/C(=C/C(=O)c1ccccc1)NN=C1c2ccccc2-c2ccccc21 [1F-04, 2-(N′-Fluoren-9-ylidene-hydrazino)-4-oxo-4-phenyl-but-2-enoic acid methyl ester] | 93 | > 1000 | highly soluble | insoluble | – |
| CCOc1ccc(/C(Cl)=C/C(=N\N=C2c3ccccc3-c3ccccc32)C(=O)OC)cc1 [3F-19, 4-Chloro-4-(4-ethoxy-phenyl)-2-(fluoren-9-ylidene-hydrazono)-but-3-enoic acid methyl ester] | 100 | – | – | – | LD50 (white mice): >200 mg/kg |
| N[C@@H](Cc1ccc(N(CCCl)CCCl)cc1)C(=O)O [Melphalan] | – | – | – | – | Toxicity: LD50 in mice (mice): 23 mg/kg |
| COC(=O)C(=CC(=O)C(C)(C)C)NN=C1c2ccccc2-c2ccccc21 [OF-06, 2-(N′-Fluoren-9-ylidene-hydrazino)-5,5-dimethyl-4-oxo-hex-2-enoic acid methyl ester] | 82 | > 3000 | highly soluble | – | LD50 (white mice): >3000 mg/kg; Solubility in ethanol, tetrachloromethane ([3]; ethanol, tetrachloromethane): slightly soluble; Solubility in hexane ([3]; hexane): insoluble |
| COC(=O)C(=CC(=O)c1ccc(Cl)cc1)NN=C1c2ccccc2-c2ccccc21 [OF-07, 4-(4-Chloro-phenyl)-2-(N′-fluoren-9-ylidene-hydrazino)-4-oxo-but-2-enoic acid methyl ester] | – | > 750 | highly soluble | insoluble | – |
| COC(=O)/C(=C/C(=O)c1ccccc1)N/N=C(\c1ccccc1)c1ccccc1Br [OF-09, 2-{N′-[(2-Bromo-phenyl)-phenyl-methylene]-hydrazino}-4-oxo-4-phenyl-but-2-enoic acid methyl ester] | – | > 5000 | highly soluble | insoluble | – |
| COC(=O)/C(=C/C(=O)c1ccccc1)N/N=C(\c1ccccc1)c1ccc(N(C)C)cc1 [OF-10, 2-{N′-[(4-Dimethylamino-phenyl)-phenyl-methylene]-hydrazino}-4-oxo-4-phenyl-but-2-enoic acid methyl ester] | – | > 1500 | highly soluble | insoluble | Solubility in chloroform [3]: highly soluble |
| CCOc1ccc(C(=O)CC(O)(NN=C2c3ccccc3-c3ccccc32)C(=O)OC)cc1 (stereo not drawn) [OF-13, 4-(4-Ethoxy-phenyl)-2-(N′-fluoren-9-ylidene-hydrazino)-2-hydroxy-4-oxo-butyric acid methyl ester] | 99 | > 1500 | – | – | Stability in solutions (Stability in solutions): not stable in solutions and decomposes quickly when the solution is heated or stored for a long time |
| COC(=O)/C(=C/C(=O)c1ccccc1)N/N=C(\C)c1ccc(Cl)cc1 [OF-20, 2-{N′-[1-(4-Chloro-phenyl)-ethylidene]-hydrazino}-4-oxo-4-phenyl-but-2-enoic acid methyl ester] | – | > 250 | highly soluble | insoluble | Solubility in chloroform [3]: highly soluble |
